{"source": "patent US20030176406A1", "about": "“Polycaprolactone-b-poly (ethylene oxide) copolymer non-cross-linked micelles as a delivery vehicle for steroid” (McGill University, priority 1999, published 2003)", "assay": "Kinetic release of DHT from PCL20-b-PEO44 micelles (dialysis method, PBS pH 7.4, 37° C.)", "assay_type": "physicochemical", "conditions": "control solution (drug alone)", "method": "To the dried micelles, 100 μL of phosphate buffer solution, PBS (pH 7.4) was added. To ensure that the micelles were well dispersed in PBS, the solutions were vortexed. The dispersed micelles were left to stand in a 37° C. warm room for 30 minutes. Once the micelle solution had reached 37° C., it was placed in a dialysis bag which was immersed in a large vial containing warmed PBS (10 mL PBS, pH=7.4, 37° C.). […] The aliquot was dispersed in 4 mL of scintillation cocktail and then counted. Following the removal of each 100 uL aliquot, a 100 uL aliquot of fresh PBS was added.\nThe dialysis method was used to study the release of DHT from two micelle solutions which differed in the amount of DHT that they contained. The concentration of the solutions studied were 8 mM and 40 mM.", "data": [{"smiles": "C[C@]12CCC(=O)C[C@@H]1CC[C@@H]1[C@@H]2CC[C@]2(C)[C@@H](O)CC[C@@H]12", "note": "[DHT, dihydrotestosterone]", "values": [{"measurement": "time to complete release", "value": 3, "unit": "h"}]}]}
